The target in this test is PD-1/PD-L1 (Homo sapiens, UniProt Q9NZQ7). The test is described as follows: TR-FRET PD-1/PD-L1 binding inhibition at the molecular level (free proteins). The following applies: Tag1-PD-L1 and Tag2-PD-1 proteins, twelve concentrations from 200 nM, 2 hours at room temperature, read-out: FRET assay (IC50). The method, boiled down: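 HTRF read-out at 665/620 nm after 2 h at room temperature. Detection used anti-Tag1 Eu cryptate plus anti-Tag2 XL665 antibodies. Tagged PD-L1 and PD-1 proteins were pre-mixed with compound across twelve […] 1:2 dilutions starting at 200 nM.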
Sequence of PD-1/PD-L1 (Q9NZQ7 19-238 limits assumed): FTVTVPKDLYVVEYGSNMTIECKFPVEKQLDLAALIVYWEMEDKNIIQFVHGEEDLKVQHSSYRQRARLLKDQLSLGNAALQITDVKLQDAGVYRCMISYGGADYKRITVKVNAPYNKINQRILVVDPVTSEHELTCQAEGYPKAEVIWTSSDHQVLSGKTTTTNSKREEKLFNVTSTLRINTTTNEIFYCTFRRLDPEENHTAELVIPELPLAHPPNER
On the technique in general: TR-FRET usually uses a lanthanide donor and a delayed reading to cut background.

Molecules are shown by their SMILES. Some results are limits rather than exact numbers.

Usually IC50 stands for the point on the concentration scale where inhibition reaches its midpoint. On to `Cc1c(NC(=O)c2cc3n(n2)CCCC3NC[C@@H]2CCC(=O)N2)cccc1-c1cccc(Nc2nccc3cc(CN4CC[C@@H](O)C4)cnc23)c1Cl` (stereo partly drawn) [Compound 40, N-(2'-chloro-3'-((3-(((R)-3-hydroxypyrrolidin-1-yl)methyl)-1,7-naphthyridin-8-yl)amino)-2-methyl-[1,1'-biphenyl]-3-yl)-4-((((S)-5-oxopyrrolidin-2-yl)methyl)amino)-4,5,6,7-tetrahydropyrazolo[1,5-a]pyridine-2-carboxamide], for which the half-maximal inhibitory concentration (IC50) is 0.01 to 0.1 µM.

Consider `Cc1c(NC(=O)c2cc3n(n2)CCCC3NCC(=O)O)cccc1-c1cccc(Nc2nccc3cc(CN4CC[C@@H](O)C4)cnc23)c1Cl` (stereo partly drawn) [Compound 41, 2-((2-((2'-chloro-3'-((3-(((R)-3-hydroxypyrrolidin-1-yl)methyl)-1,7-naphthyridin-8-yl)amino)-2-methyl-[1,1'-biphenyl]-3-yl)carbamoyl)-4,5,6,7-tetrahydropyrazolo[1,5-a]pyridin-4-yl)amino)acetic acid], for which the IC50 is below 0.01 µM.

Take `Cc1c(NC(=O)c2cc3n(n2)CCCC3N2CC[C@@H](C(=O)O)C2)cccc1-c1cccc(Nc2nccc3cc(CN4CC[C@@H](O)C4)cnc23)c1Cl` (stereo partly drawn) [Compound 42, (3R)-1-(2-((2'-chloro-3'-((3-(((R)-3-hydroxypyrrolidin-1-yl)methyl)-1,7-naphthyridin-8-yl)amino)-2-methyl-[1,1'-biphenyl]-3-yl)carbamoyl)-4,5,6,7-tetrahydropyrazolo[1,5-a]pyridin-4-yl)pyrrolidine-3-carboxylic acid]: the IC50 was below 0.01 µM.

With `Cc1c(NC(=O)c2cc3n(n2)CCCC3N2CCC(C(=O)O)CC2)cccc1-c1cccc(Nc2nccc3cc(CN4CC[C@@H](O)C4)cnc23)c1Cl` (stereo partly drawn) [Compound 44, 1-(2-((2'-chloro-3'-((3-(((R)-3-hydroxypyrrolidin-1-yl)methyl)-1,7-naphthyridin-8-yl)amino)-2-methyl-[1,1'-biphenyl]-3-yl)carbamoyl)-4,5,6,7-tetrahydropyrazolo[1,5-a]pyridin-4-yl)piperidine-4-carboxylic acid], the IC50 was 0.01 to 0.1 µM.

Regarding `Cc1c(NC(=O)c2cc3n(n2)CCCC3O)cccc1-c1cccc(NC(=O)c2nc3c(n2C)CCN(CCC24CCC(C(=O)O)(CC2)C4)C3)c1C` (stereo not shown) [Compound 45, 4-(2-(2-((3'-(4-hydroxy-4,5,6,7-tetrahydropyrazolo[1,5-a]pyridine-2-carboxamido)-2,2'-dimethyl-[1,1'-biphenyl]-3-yl)carbamoyl)-1-methyl-6,7-dihydro-1H-imidazo[4,5-c]pyridin-5(4H)-yl)ethyl)bicyclo[2.2.1]heptane-1-carboxylic acid], the IC50 is below 0.01 µM.

For `CC(=O)NCCNC1CCCn2nc(C(=O)Nc3cccc(-c4cccc(NC(=O)c5nc6c(n5C)CCN(CCC57CCC(C(=O)O)(CC5)C7)C6)c4C)c3C)cc21` (stereo not shown) [Compound 46, 4-(2-(2-((3'-(4-((2-acetamidoethyl)amino)-4,5,6,7-tetrahydropyrazolo[1,5-a]pyridine-2-carboxamido)-2,2'-dimethyl-[1,1'-biphenyl]-3-yl)carbamoyl)-1-methyl-6,7-dihydro-1H-imidazo[4,5-c]pyridin-5(4H)-yl)ethyl)bicyclo[2.2.1]heptane-1-carboxylic acid], the IC50 was below 0.01 µM.

Turning to `Cc1c(NC(=O)c2cc3n(n2)CCCC3N2CC[C@@H](O)C2)cccc1-c1cccc(NC(=O)c2nc3c(n2C)CCN(CCC24CCC(C(=O)O)(CC2)C4)C3)c1C` (stereo partly drawn) [Compound 47, 4-(2-(2-((3'-(4-((R)-3-hydroxypyrrolidin-1-yl)-4,5,6,7-tetrahydropyrazolo[1,5-a]pyridine-2-carboxamido)-2,2'-dimethyl-[1,1'-biphenyl]-3-yl)carbamoyl)-1-methyl-6,7-dihydro-1H-imidazo[4,5-c]pyridin-5(4H)-yl)ethyl)bicyclo[2.2.1]heptane-1-carboxylic acid], the IC50 is below 0.01 µM.

The record behind these values is patent EP4755888A1 (ILAb Co., Ltd., priority 2023, dated 2025).
